Columns and labels:
C2C12 skeletal myoblasts = assay: Differentiation of C2C12 myoblasts to myotubes on graphene films or SiO2; format: cell-based, mouse
Experimental: C2C12 skeletal myoblasts (ATCC Cat. No. CRL 1772) were cultured on graphene films or SiO2 in high glucose DMEM supplemented with 10% fetal bovine serum (FBS) and 1% antibiotics. […] Cells were cultured for 5 days and stained with primary antibody MF20 (myosin heavy chain, MHC) overnight at 4° C., followed by goat anti-mouse secondary antibody and the nuclear stain 4′, 6-diamidino-2-phenylindole (DAPI) for 2 hours at 37° C. Cells were imaged with a fluorescent microscope and images were quantified using ImageJ 1.47d.
Fusion index was calculated as the ratio of the number of nuclei in myocytes with two or more nuclei versus the total number of nuclei. Cell density was determined by counting the number of nuclei in a particular area. Statistical analysis was performed using one-way analysis of variance and values are reported as mean±standard error of the mean.

[1] = system: NSC-34 motor neuron cells; assay: Differentiation of NSC-34 motor neuron cells (neurite outgrowth); format: cell-based, mouse; conditions: IGF-1 added to Neurobasal differentiation media
Experimental: NSC-34 cells (Cellutions, Cat. No. CLU 140) are a hybrid cell line produced by fusion of motor neuron enriched embryonic mouse spinal cord cells with mouse neuroblastoma, resulting in a motor neuron-like cell. NSC-34 cells were grown in high glucose DMEM with 10% FBS and 1% antibiotics. […] In some examples, NSC-34 cells were cultured in Neurobasal medium with 50-100 ng/ml IGF-1. Cells were imaged with a fluorescent microscope and images were quantified using ImageJ 1.47d with the NeuronJ plugin.

[2] = IGF-1 (50 ng/ml) added to differentiation medium, graphene films, vs differentiation medium alone

Substance: insulin-like growth factor-1 [IGF-1]
- cell density (C2C12 skeletal myoblasts; [2]): significantly increased
- fusion index (C2C12 skeletal myoblasts; [2]): significantly increased
- myotube formation (C2C12 skeletal myoblasts; [2]): significantly increased
- myotube formation (C2C12 skeletal myoblasts; increasing the amount of IGF-1 in the differentiation medium from 1-500 ng/ml): increased myotube formation
- neurite length per neuron [1]: significantly increased
- number of neurites per neuron [1]: did not affect
- sum of neurite length [1]: significantly increased
